Literature values as cited in patent publication US8785426B1, “Testosterone gel compositions and related methods” (Upsher-Smith Laboratories, Inc., priority 2013, dated 2014).

Conditions: reported solubility

C[C@]12CC[C@H]3[C@@H](CCC4=CC(=O)CC[C@@]43C)[C@@H]1CC[C@@H]2O [Testosterone, 17-β-hydroxyandrost-4-en-3-one]
solubility in ethyl alcohol: 0.17 grams per gram ethyl alcohol
